Columns and labels:
PRMT5 [1] = target: T1, PRMT5 (Homo sapiens, UniProt O14744); test: PRMT5 biochemical IC50 assay with no cofactor; settings: PRMT5, no cofactor
T1 construct: purchased Viva (custom protein)
Excerpt: Table 1 indicates IC50 values (μM) against PRMT5 for exemplary compounds in the presence of SAM as cofactor, with no cofactor, and with MTA as cofactor, respectively (columns 4-6). […] Ki values can be calculated from the IC50 values as described in the Examples section. As detailed in the Examples section, for the assay performed in the presence of SAM, IC50=Ki×1.5 (Ki=IC50/1.5).

[2] = tested on: HAP1 MTAP-intact cell line; test: SDMA in-cell western assay, HAP1 MTAP-intact; type: cell-based; settings: Homo sapiens, HAP1, SDMA in-cell western, HAP1 MTAP-intact; read-out: MTAP HAP1 intact IC50
How it was run: (§1)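 Isogenic HAP1 pair: the MTAP-intact line expresses endogenous MTAP, and the deleted line is MTAP-null. Symmetric dimethylarginine was detected by in-cell western and IC50 values derived for each line.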

PRMT5 [3] = target: T1, PRMT5; test: PRMT5 biochemical IC50 assay with SAM as cofactor; settings: PRMT5, SAM as cofactor; read-out: SAM IC50
[4] = tested on: HAP1 MTAP-deleted cell line; test: SDMA in-cell western assay, HAP1 MTAP-deleted; type: cell-based; settings: for IC50: Homo sapiens, HAP1, SDMA in-cell western, HAP1 MTAP-deleted; for MTAP intact/deleted ratio: IC50 ratio HAP1 MTAP-intact / HAP1 MTAP-deleted, SDMA in-cell western
How it was run: as §1

[5] = tested on: HAP1 MTAP-deleted cell line; test: Viability assay, MTAP-deleted cell line; type: cell-based; settings: Homo sapiens, read-out: HAP1 MTAP deleted viability
Excerpt: Table 1 additionally indicates IC50 values in a viability assay for the MTAP-deleted cell line (column 10), indicating the effect of treatment with compound on cell survival.

PRMT5 [6] = target: T1, PRMT5; test: PRMT5 biochemical IC50 assay with MTA as cofactor; settings: PRMT5, MTA as cofactor; read-out: MTA IC50
[7] = read-out: HAP1 MTAP deleted IC50
[8] = HAP1, viability assay, MTAP-deleted cell line
[9] = read-out: No Cofactor/ rel IC50
[10] = read-out: HAP 1 MTAP deleted IC50
[11] = HAP1, viability, HAP1 MTAP-deleted cell line

T1 sequence (O14744 whole entry): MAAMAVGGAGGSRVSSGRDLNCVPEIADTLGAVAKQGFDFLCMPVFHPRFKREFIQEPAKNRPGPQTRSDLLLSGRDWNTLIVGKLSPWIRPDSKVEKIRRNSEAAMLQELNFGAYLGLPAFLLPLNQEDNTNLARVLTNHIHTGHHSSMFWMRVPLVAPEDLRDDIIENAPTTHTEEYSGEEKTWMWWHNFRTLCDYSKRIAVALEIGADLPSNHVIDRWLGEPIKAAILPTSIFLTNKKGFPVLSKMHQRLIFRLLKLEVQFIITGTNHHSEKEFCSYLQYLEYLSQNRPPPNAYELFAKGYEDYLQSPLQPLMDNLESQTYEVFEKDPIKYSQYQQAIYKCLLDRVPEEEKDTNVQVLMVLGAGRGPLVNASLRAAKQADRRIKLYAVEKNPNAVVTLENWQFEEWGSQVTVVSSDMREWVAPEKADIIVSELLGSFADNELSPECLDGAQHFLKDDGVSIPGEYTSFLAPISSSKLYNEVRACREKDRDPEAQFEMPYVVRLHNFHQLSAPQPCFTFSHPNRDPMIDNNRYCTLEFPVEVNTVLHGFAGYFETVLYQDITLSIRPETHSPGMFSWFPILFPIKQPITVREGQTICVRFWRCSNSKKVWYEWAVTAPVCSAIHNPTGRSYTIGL
T1 sequence (Q9BQA1 whole entry partner): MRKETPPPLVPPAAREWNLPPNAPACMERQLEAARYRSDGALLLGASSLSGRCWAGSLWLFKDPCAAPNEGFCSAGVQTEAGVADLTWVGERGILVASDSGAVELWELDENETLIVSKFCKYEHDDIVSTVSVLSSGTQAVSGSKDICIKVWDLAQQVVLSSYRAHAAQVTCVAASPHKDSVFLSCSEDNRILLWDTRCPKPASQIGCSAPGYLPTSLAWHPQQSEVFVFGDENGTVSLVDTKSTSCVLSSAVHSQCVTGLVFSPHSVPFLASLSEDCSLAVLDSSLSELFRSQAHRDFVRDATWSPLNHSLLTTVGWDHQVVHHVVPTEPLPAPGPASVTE

Compound	IC50 (PRMT5 [1]; read-out: No Cofactor/rel IC50) [nM]	IC50 [2] [nM]	IC50 (PRMT5 [3]) [nM]	IC50 [4, 7] [nM]	IC50 (PRMT5 [6]) [nM]	IC50 (PRMT5 [1]; [9]) [nM]	IC50 [4, 10] [nM]	MTAP intact/deleted ratio [4]	IC50 [5, 8] [nM]	IC50 [5, 11] [nM]	IC50 ([5]; HAP1, viability assay, HAP1 MTAP-deleted) [nM]
C[C@@H]1CC[C@@H](c2ccc3c(c2)OCO3)N(C(=O)C(=O)Nc2cncc(C(N)=O)c2)C1 (racemic) [Compound 270, rac-5-{2-[(2R,5S)-2-(1,3-Dioxaindan-5-yl)-5-methylpiperidin-1-yl]-2-oxoacetamido}pyridine-3-carboxamide]	50 to 500	> 1000	50 to 500	< 100	< 50			A (an IC50 ratio greater than or equal to 10 fold)	1000 to 10000		
COc1ncc(NC(=O)C(=O)N2C[C@H](C)CC[C@H]2c2ccc(NS(C)(=O)=O)nc2)cc1C(N)=O (single isomer, unassigned) [Compound 986]	50 to 500	> 1000	> 500		< 50		100 to 1000	A (an IC50 ratio greater than or equal to 10 fold)	1000 to 10000		
Cc1cc(NC(=O)C(=O)N2C[C@H](C)CC[C@H]2c2ccc3c(=O)[nH]ccc3c2)cnc1N (single isomer, unassigned) [Compound 953]	> 500	> 1000	> 500		50 to 500		100 to 1000	A (an IC50 ratio greater than or equal to 10 fold)	> 10000		
CCc1cc(NC(=O)C(=O)N2C[C@@H](C)CC[C@@H]2c2ccc3c(c2)OCCN3)cnc1N (racemic) [Compound 870, N-(6-amino-5-ethyl-3-pyridyl)-2-[(2R,5S)-2-(3,4-dihydro-2H-1,4-benzoxazin-7-yl)-5-methyl-1-piperidyl]-2-oxo-acetamide]	50 to 500	> 1000	50 to 500	< 100	50 to 500			A (an IC50 ratio greater than or equal to 10 fold)			< 1000

Continued, in another order:

IC50 (PRMT5 [1]; read-out: No Cofactor/rel IC50) [nM]	IC50 [2] [nM]	IC50 (PRMT5 [3]) [nM]	IC50 [4, 7] [nM]	IC50 (PRMT5 [6]) [nM]	IC50 (PRMT5 [1]; [9]) [nM]	IC50 [4, 10] [nM]	Compound	MTAP intact/deleted ratio [4]	IC50 [5, 8] [nM]	IC50 [5, 11] [nM]	IC50 ([5]; HAP1, viability assay, HAP1 MTAP-deleted) [nM]
50 to 500	> 1000	50 to 500	< 100	< 50			C[C@@H]1CC[C@@H](c2ccc(Cl)cc2)N(C(=O)C(=O)Nc2cncc(C(N)=O)c2)C1 (racemic) [Compound 212, rac-5-[[2-[(2S,5R)-2-(4-chlorophenyl)-5-methyl-1-piperidyl]-2-oxo-acetyl]amino]pyridine-3-carboxamide]	A (an IC50 ratio greater than or equal to 10 fold)	1000 to 10000		
	< 100	< 50		< 50	< 50	< 100	COc1ncc(NC(=O)C(=O)N2C[C@@H](C)CC[C@@H]2c2ccc3sc([C@H]4CCCN(C)C4)nc3c2)cc1C(N)=O [Compound 1359, 2-methoxy-5-(2-((2R,5S)-5-methyl-2-(2-((S)-1-methylpiperidin-3-yl)benzo[d]thiazol-5-yl)piperidin-1-yl)-2-oxoacetamido)nicotinamide]	A (an IC50 ratio greater than or equal to 10 fold)		< 1000	
	100 to 1000	< 50		< 50	< 50	< 100	CCc1cc(NC(=O)C(=O)N2C[C@@H](C)CC[C@@H]2c2cccc([C@H]3CCN(C)C3)c2)cnc1N [Compound 1342, N-(6-amino-5-ethylpyridin-3-yl)-2-((2R,5S)-5-methyl-2-(3-(1-methylpyrrolidin-3-yl)phenyl)piperidin-1-yl)-2-oxoacetamide]	A (an IC50 ratio greater than or equal to 10 fold)		< 1000	
	100 to 1000	50 to 500		< 50	< 50	< 100	CCc1cc(NC(=O)C(=O)N2C[C@@H](C)CC[C@@H]2c2ccc3sc(C(F)(F)CN(C)C)nc3c2)cnc1N (relative stereo) [Compound 1280]	A (an IC50 ratio greater than or equal to 10 fold)		< 1000	

Reference: US11999727B2 (Tango Therapeutics, Inc., priority 2020, dated 2024)
